The test concerns RBL SX-38 cells. Briefly: [3H]5-HT release (degranulation) from labeled and sensitized RBL SX-38 cells. The class given is cell-based, rat. The note with it: pre-incubation 5 minutes at 37 C; 0.1 mM NECA, 30% D2O or 5 μg/ml cytochalasin B. On the procedure:
As specifically exemplified herein, we have labeled RBL SX-38 cells with ^3H-serotonin (5HT). A fraction of the tritiated 5-HT incorporated into cellular granules is released from the cells (in the process of degranulation) following their activation. The percentage of labeled 5-HT release, where the label is a radioactive moiety, is calculated as follows: disintegrations per minute (dpm) in the supernatant divided by the sum of the dpm in the supernatant plus the dpm in the residual cells. This formula is as follows:
% release =100×(dpm in the supematant)/(dpm in the supernatant+dpm in the residual cells).
For each experiment, a positive control, activation of the cells with anti-IgE is determined. The % release with anti-IgE (usually about 30-60% of the total 5-HT) is set at 100%. Degranulation with a given allergen is then expressed as a percent of that seen with anti-IgE. […]
Triggering is initiated by adding 5 μl of allergenic extracts (diluted to the appropriate concentration) or goat anti-human-IgE (3 μg/ml). […] Non-specific background release is assessed using negative controls, which have 5 μl PIPES buffer added instead of extract or anti-IgE. After 45 minutes, the plates are then removed and the tritium content of a 50 μl aliquot from the supernatant of each sample, in 5 ml of scintillation fluid, is determined. […]

As to `CCNC(=O)[C@H]1O[C@@H](n2cnc3c(N)ncnc32)[C@H](O)[C@@H]1O` [NECA, N-ethylcarboxamido adenosine], the “effect on threshold for triggering by allergen” value was “lowers the threshold for triggering”.

(Values after patent US20030022250A1, “Functional IgE test methods and compositions” (priority 2001, published 2003).)
